Laboratory results taken from PubChem BioAssay (NCI).
Several values for one entry are separate records, joined by “and”; a condition that tells them apart may be missing. Equal entries are not always repeated.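 48-hour exposure; five concentrations; linearly interpolated endpoints. At the GI50, growth is halved. Definition used: TGI = concentration required for complete inhibition of growth.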

Tests used:
Assay in all cases: growth of human tumour cells (NCI), 48 h
SR leukemia = test system: SR leukemia
CAKI-1 renal = test system: CAKI-1 renal
M14 melanoma = test system: M14 melanoma
LOX IMVI melanoma = test system: LOX IMVI melanoma
SK-MEL-28 melanoma = test system: SK-MEL-28 melanoma
A549 NSCLC = test system: A549 NSCLC
HOP-62 NSCLC = test system: HOP-62 NSCLC
BT-549 breast = test system: BT-549 breast
NCI-H226 lung = test system: NCI-H226 lung
COLO 205 colon = test system: COLO 205 colon

SMILES | GI50 (SR leukemia) | TGI (SR leukemia) [µM] | GI50 (CAKI-1 renal) | TGI (CAKI-1 renal) | GI50 (M14 melanoma) | TGI (M14 melanoma) | GI50 (LOX IMVI melanoma) | TGI (LOX IMVI melanoma) | GI50 (SK-MEL-28 melanoma) | TGI (SK-MEL-28 melanoma) | GI50 (A549 NSCLC) | TGI (A549 NSCLC) [µM] | GI50 (HOP-62 NSCLC) | TGI (HOP-62 NSCLC) | GI50 (BT-549 breast) | TGI (BT-549 breast) | GI50 (NCI-H226 lung) | TGI (NCI-H226 lung) | GI50 (COLO 205 colon) | TGI (COLO 205 colon)
Cc1cc2c(cc1Cl)N1C(=O)NS(=O)(=O)N=C1NS2(=O)=O | > 100 µM | > 100 | > 100 µM | > 100 µM | > 100 µM | > 100 µM | > 100 µM | > 100 µM | > 100 µM | > 100 µM | > 100 µM | > 100 | > 100 µM | > 100 µM | > 100 µM | > 100 µM | > 100 µM | > 100 µM | > 100 µM | > 100 µM
COc1c2ccccc2c(O)c2c(=O)ccn(C)c12 | 8.94 µM | 81.8 | 8.59 µM | 52.9 µM | 2.3 µM | 5.81 µM | 2.02 µM | 11.3 µM | 21.2 µM | > 80.1 µM | 9.14 µM | > 67.3 | 5.48 µM | 33 µM | 14.7 µM | 84.2 µM | 7.49 µM | > 49.9 µM | 7.7 µM | > 100 µM
O=C(/C=C/c1ccccc1)OCC1=C[C@@H](O)[C@@H]2C=CO[C@@H](OC3OC(CO)C(O)C(O)C3O)[C@H]12 (some centres undefined) |  | > 100 |  | > 100 µM |  | > 100 µM |  | > 100 µM |  | > 100 µM |  | > 100 |  | > 100 µM |  | > 100 µM |  | > 100 µM |  | > 100 µM
COc1cc(NC(C)CCCN2C(=O)c3ccccc3C2=O)c2ncccc2c1OC (centres undefined) | 23.7 µM | > 100 | 29.5 µM | 74.4 µM | 30.5 µM | > 100 µM | 28.2 µM | > 100 µM | 37.8 µM | > 100 µM | 33 µM | > 100 | 52.6 µM | > 100 µM | 23.4 µM | 83.7 µM | 33.3 µM | > 100 µM | 31.9 µM | > 100 µM
COc1ccc(/C=C2/CN(CCC#N)C/C(=C\c3ccc(OC)cc3)C2=O)cc1 | 1.07 µM | > 100 | 2.82 µM | > 100 µM | 3.01 µM | 9.6 µM | 1.7 µM | 4.03 µM | 1.99 µM | 4.3 µM | 2.92 µM | > 100 | 2.17 µM | 4.79 µM | 2.1 µM | 4.73 µM | 21.3 µM | > 100 µM | 1.91 µM | 3.5 µM
FC(F)(F)c1ccc(NCc2nc3ccccc3[nH]2)cc1 | 28.3 µM | > 100 | 19.4 µM | 49.4 µM | 24.7 µM | > 100 µM | 23.2 µM | > 100 µM | 27.9 µM | > 100 µM | 27.7 µM | > 100 | 28.8 µM | 96.4 µM | 31.1 µM | 97.5 µM | 26.1 µM | > 100 µM | 19.2 µM | 34.3 µM
CNc1ncc2cc(-c3cc(NC(=O)NCCC(C)(C)C)c(F)cc3C)c(C)nc2n1 | 0.811 µM and 3.13 µM | > 75.2 | 0.437 µM and 0.2 µM | > 100 µM | < 0.01 µM and 0.0105 µM |  | 0.102 µM and 0.0573 µM | 2.23 µM and 2 µM | < 0.01 µM and 0.0101 µM | 0.118 µM and 0.239 µM | 0.754 µM and 0.598 µM | > 100 | 0.195 µM and 0.298 µM | 12.7 µM and > 10 µM | 3.29 µM and 2.49 µM | > 100 µM | 1.11 µM and 0.298 µM | > 100 µM | < 0.0133 µM and 0.0135 µM | 1.38 µM and > 4.3 µM
O=c1c2cc(O)c(O)cc2oc2cc(O)c(C3OC(CO)C(O)C(O)C3O)c(O)c12 (centres undefined) |  | > 100 |  | > 100 µM |  | > 100 µM |  | > 100 µM |  | > 100 µM |  | > 100 |  | > 100 µM |  | > 100 µM |  | > 100 µM |  | > 100 µM
CNCCNc1nc2ccccc2c2c(=O)c3cccc(C)c3sc12 | 0.94 µM | 2.51 | 1.16 µM | 6.73 µM | 0.853 µM | 1.7 µM | 0.791 µM | 1.49 µM | 4.08 µM | 10.5 µM | 1.82 µM | 7.5 | 1.36 µM | 8.81 µM | 5.34 µM | 12.1 µM | 7.19 µM | 16.7 µM | 0.921 µM | 1.92 µM
O=C1NC(=N[C@H](CO)c2ccccc2)S/C1=C\c1ccc2ncccc2c1 | 0.786 µM | 4.85 | 3.75 µM | > 16 µM | 7.46 µM | > 25 µM | 2.41 µM | 22 µM | 7.96 µM | > 25 µM | 4.62 µM | 18.8 | 6.73 µM | > 25 µM | 3.95 µM | > 16 µM | 4.8 µM | 16.5 µM | 3.54 µM | > 25 µM
Fc1ccc(C2C3CCOc4c(ccc5ccccc45)C3=NN2c2ccccc2)cc1 (centres undefined) | 13.3 µM | > 100 | 64.2 µM | > 100 µM | > 100 µM | > 100 µM | 88.4 µM | > 100 µM | > 88.7 µM | > 100 µM | 48.9 µM | > 100 | > 100 µM | > 100 µM | > 100 µM | > 100 µM | 34.2 µM | 97 µM | > 100 µM | > 100 µM
COc1ccc2nc3cc(Cl)ccc3c(Nc3cc(C(C)C)c(O)cc3C)c2c1 | 0.703 µM | 12 | 2.1 µM | 5.42 µM | 1.74 µM | 3.31 µM | 1.79 µM | 3.3 µM | 1.91 µM | 4.05 µM | 2.26 µM | 6.98 | 1.91 µM | 3.48 µM | 0.588 µM | 2.89 µM | 2.23 µM | 6.64 µM | 1.81 µM | 3.64 µM
COC(=O)c1ccc2c(C(=Nc3ccc(N(C)C(=O)CN4CCN(C)CC4)cc3)c3ccccc3)c(O)[nH]c2c1 | 2.5 µM | > 44.7 | 4.28 µM and 11.9 µM | 25.3 µM and > 100 µM | 1.75 µM and 1.98 µM | 3.56 µM and 3.98 µM | 1.24 µM and 1.28 µM | 3.09 µM and 2.75 µM | 1.77 µM and 1.96 µM | 3.35 µM and 3.5 µM | 2.74 µM and 2.79 µM | > 100 | 1.36 µM and 2.32 µM | 12.2 µM and > 100 µM | 6.6 µM and 11.7 µM | 22 µM and 29.7 µM | 2.35 µM and 1.82 µM | 24.5 µM and 59.9 µM | 4.32 µM and 4.41 µM | 46.4 µM
